What was measured:
IDH1 = assay: Western blot of Isocitrate Dehydrogenase-1 levels in cells treated with Coenzyme Q10; type: cell-based, human
Experimental: The whole cell pellets were resuspended one at a time in 1 mL of C7 buffer and transferred to labeled 15 mL tubes. The samples were then sonicated in the cold room on ice using 6 sonic pulses with the setting at #14. The samples were spun for a short time to 2500 g after sonication and the samples transferred to 2 ml tubes. The pH was verified of each sample (pH should be 9.0) using the foam remaining in the […] sample tubes.
Alkylation and reduction of samples was performed for each sample by adding 10 ul of 1M acrylamide, 25 ul of tributylphoshene and incubation for 90 mins with intermittent mixing. After incubation, 10 ul of 1M DTT was added and the tubes were spun at 20,000 g at 20 deg C. for 10 minutes and transferred the supernatant to labeled Amicon Ultra centrifugal filter units with a 10 k cut off (Millipore catalog #UFC 801024). The samples were spun for 15 minutes at 2500 g in 2 intervals. The conductivity was measured for Chaps alone as well as the samples using a conductivity meter. If the conductivity of samples is high, then 1 ml of chaps was added for buffer exchange and spun again at 2500 g until the volume was down to 250 ul. When the conductivity was 200 or less the samples were spun in 5 min intervals at 2500 g until the volume of the supernatant was between 150-100 ul. The sample supernatants were transferred to eppendorf tubes and Bradford assay was performed using BSA as standard.
The samples were processed as per standard protocols as described above and the amount of protein in each of the samples was determined by Bradford assay. Sample volumes equivalent to 10 ug of protein were prepared as shown below with Lamelli Loading dye (LDS) and MilliQ water were run on a 4-12% Bis-Tris Novex NuPAGE gel (Invitrogen, cat #NP0323Box)
The gels were run for 50 minutes using 1×MOPS buffer using a NOVEX Xcell Surelock system at 200 V. The gels were then transferred for 1 hour using a NOVEX Xcell Surelock wet transfer protocol at 30 V. The blots were stained with Simply Blue Safestain from Invitrogen (LC6065).
After transfer each of the blots was placed in between 2 Whatman Filter papers and dried for 15-20 minutes. After drying the blots were labeled with the date, the type of samples and either blot 1 or blot 2 using a HB pencil. The molecular weight markers were outlined with the pencil and with single lines for the blue and a doublet for the colored markers. The blots were activated with methanol for 5 seconds, washed with water for 5 minutes, and TBST for 15 minutes. The blots were blocked for 1 hour with 5% blocking reagent in TBS-T at room temperature and then washed 3 times with TBS-T (1×-15′; 2×5′ each). Blot 1 was probed with the primary antibody for IDH1 (Cell Signaling #3997) in TBST with 5% BSA (at 1:1000 dilutions) and blot 2 with the rabbit polyclonal antibody for ATP Citrate Lyase in 5% BSA (Cell Signaling #4332) at 1:1000 dilution by incubation overnight at 4 deg C. with shaking. After the overnight incubation with primary antibodies, the blots were washed 3 times with TBS-T (1×-15′; 2×5′ each) and probed with the secondary antibody (antirabbit; 1:10,000 dilution) for 1 hon the orbital tilting shaker at room temperature. After 1 h of incubation with secondary antibodies, the blots were washed 3 times with TBS-T (1×-15′; 2×5′ each) and then incubated with ECF reagent for 5 mins and then each blot scanned with 5100 Fuji Laser scanner at 25 uM resolution, 16 bit, green laser, at 400V and at 500 V.
The samples were processed and run on a 4-12% Bis-Tris Novex NuPAGE gel as described above. The gels were run, transferred and stained essentially as described above.
After transfer the blot was dried for 15-20 minutes, activated with methanol for 5 seconds, washed with water for 5 minutes, and TBST for 15 minutes. The blot was blocked for 1 hour with 5% blocking reagent in TBS-T at room temperature and then washed 3 times with TBS-T (1×-15′; 2×5′ each). […]

HASMC cells = assay: SeaHorse XF analyzer OCR and ECAR; type: cell-based, human; conditions: hyperglycemic cells in hypoxic conditions
Description: Environmental influencers (e.g., MIMs or Epi-shifters) may also be identified by changes in cellular energetics. One example of the measurement of cellular energetics are the real-time measures of the consumption of molecular oxygen and/or the change in pH of the media of a cell culture. For example, the ability of a potential epi-shifter to modulate the metabolic state of a cell may be analyzed using, for example, the XF24 Analyzer (Seahorse, Inc.). This technology allows for real time detection of oxygen and pH changes in a monolayer of cells in order to evaluate the bioenergetics of a cell microenvironment. The XF24 Analyzer measures and compares the rates of oxygen consumption (OCR), which is a measure of aerobic metabolism, and extracellular acidification (ECAR), which is a measure of glycolysis, both key indicators of cellular energetics.
(SeaHorse Biosciences Inc, North Billerica, Mass.).
In this experiment, the OCR and extracellular acidification rate (ECAR) in normal cells lines were obtained in the presence and absence of CoQ10 to determine baseline values. It was observed that in its native nutrient environment, the basal OCR rates in normal cells lines are different, and are usually a function of the physiological roles of the cells in the body. […]

[1] = tested on: control and cancer cell lines; assay: Sensitivity and apoptotic response of a panel of control and cancer cell lines; type: cell-based; conditions: various levels of Coenzyme Q10
Experimental: In a first set of experiments, changes to cell morphology/physiology were evaluated by examining the sensitivy and apoptotic response of cells to CoQ10. […] Exemplary experiments are described in detail in Example 3 below.

## COC1=C(OC)C(=O)C(C/C=C(\C)CC/C=C(\C)CC/C=C(\C)CC/C=C(\C)CC/C=C(\C)CC/C=C(\C)CC/C=C(\C)CC/C=C(\C)CC/C=C(\C)CCC=C(C)C)=C(C)C1=O [Q10, Coenzyme Q10]
IDH1; HASMC human aortic smooth muscle cells
  expression of IDH1: did not demonstrate significant changes
IDH1; HDFa primary human derived fibroblasts
  expression of IDH1: did not demonstrate significant changes
IDH1; HDFa, 24 h, 100 μM
  IDH1 Average Normalized Intensity: 600
IDH1; HepG2 cells
  expression of IDH1: increased expression
IDH1; MCF-7 cells
  expression of IDH1: increased expression
IDH1; PACA2, 5 g, 48 h, 100 μM
  IDH1 Normalized Intensity: 860
IDH1; PaCa-2 cells
  expression of IDH1: increased expression
IDH1; SCC25 cell lines
  expression of IDH1: moderate increase
IDH1; SKMEL28 cells
  expression of IDH1: increased expression
IDH1; nFIB fibroblasts
  expression of IDH1: did not demonstrate significant changes
HASMC cells
  ECAR rates: downward trend
[1]
  apoptotic response of cancer vs control cell lines: induction of apoptosis and cell death in the cancer cells only
